pEC50: −log10 of the molar value. Where two headings read alike, the source gives them in different places.
What was measured:
[1] = system: Daudi cell line (AID positive); experiment: Primary screening cell killing assay (Cell-Titer Glo, Day 7); format: cell-based; settings: Homo sapiens
Protocol: (§1) Primary screening was a phenotypic screen that utilized the synthetic lethal interaction between AID and RAD51 to identify compounds that were both potent and on target. AID expressing cells are dependent upon RAD51 for survival; inhibiting RAD51 in AID positive cells results in a cytotoxic effect.
(§2) The first step was to set up a cell killing assay in the Daudi cell line (AID positive). A 96 well u-bottom plate was prepared by writing the experiment number, plate number, date and initials in the top right corner of the plate lid. With a sterile 300 ml reservoir, and 25 ml serological pipette, evaporation buffer media was pipetted into reservoir in 25 ml increments. Using the liquid handler, 150 ul of evaporation buffer media was pipetted from reservoir into rows A and H, and Columns 1 and 12 of the 96 well u-bottom plate. Cell cultures were counted to obtain the density of cells per ml, and the culture viability. The cell density information was used to obtain 1,000,000 cells from culture using a 5 mL serological pipette into an epi tube. The cell density information from the culture was used to calculate the number of cells and volume of media needed for the assay to seed 1250 cells in 130 ul of media per available culture well in the 96 well u-bottom plate. Rows B through F were used for cells (50 wells in total), with row G left for an empty media control. The calculation was overestimated by 10 mL to account for the dead volume in the 300 ml reservoir. Once the media volume was calculated, the appropriate volume of media was pipetted in 25 mL increments into the 250 mL bottle using a 25 mL serological pipette. The 250 ml bottle was capped tightly, and placed into a 37° C. water bath for 2 minutes. While the culture media was warming, 10 mL of fresh media was pipetted from the 500 mL culture media bottle into a sterile 25 mL reservoir. Using the Eppendorf multichannel pipette, 130 ul of media was piptted from the 25 mL reservoir into row G of the 96 well u-bottom plate. Once the 250 mL bottle of media was warmed, the volume of culture needed was pipetted into the bottle, and mixed gently with a 25 mL serological pipette as to not create bubbles, and then the contents of the bottle were pipetted into a new 300 mL reservoir. Using the liquid handler, 130 ul of culture was pipetted from the 300 mL reservoir into rows B through F of the 96 well u-bottom plate. Once the culture was added, the plate was placed into a 37° C. incubator until the compound master plate was prepared for use.
(§3) Two 96 well u-bottom plates were prepared by writing the master plate name in the upper right corner of the plate lid. Labeling one DMSO master and the other Media Master. The compounds of interest were obtained from the laboratory freezer, and placed into a 25 well storage box with a lid, and set the box aside. The compounds were vortexed after thawing but before use. Using an automatic multichannel pipette, 20 ul of 100% DMSO was pipetted into wells B3-B11 through G3-G11 of the DMSO master plate. For each compound on the master plate, 50 ul of the compound were pipetted in the appropriate well of row 2 (reference plate map to determine appropriate well). A serial dilution was prepared beginning by aspirating 20 ul from row 2 and mixing with row 3, repeating until row 11 was reached. Using the liquid handler, 194 ul of Daudi media was dispensed into wells B2-B11 through G2-G11 of the Media master plate. Using the liquid handler, 6 ul from the DMSO master plate was aspirated and dispensed into the media master plate, mixing 100 ul twice.
Compounds from master plate were then added to the culture plate. The culture plates were removed from the incubator, and set inside the biosafety cabinet. Using a liquid handler, 20 ul from wells B2 to B11 through G2 to G11 of master plate were aspirated, and dispensed into wells B2 to B11 through G2 to G11 of culture plate. This set was continued with each culture plate. […]

[2] = system: WI-38 cells (AID negative); experiment: Primary screening cell killing assay repeated in AID negative cells; format: cell-based, Human
Protocol: as §1
Percent cell death and EC50 values were calculated by comparing the cell viability of the compound treated wells to the non-treated wells. Normalized RLU values were obtained by subtracting the media well values from each of the wells in the same column, and then dividing that value by the DMSO treated cells values. The percent kill was then calculated by subtracting the normalized RLU value from 1 and multiplying by 100. The average normalized percent kill value and standard error of the mean was then calculated. The kill values were then inputted into Prism with the corresponding standard errors. In Prism a non-linear regression line was plotted with the data points using a semi-log scale, and the EC50 value was calculated.
The activity of the claimed compounds was measured in a variety of cell lines with different expression levels of activation induced cytidine deaminase (AICDA). The potency assay was repeated in all of the listed cell lines and the EC50 values recorded.

[3] = Bi-directional Caco-2 permeability; format: in vitro ADME; settings: human
Protocol: Bi-directional Caco-2 permeability was assayed. Caco-2 cells were seeded onto permeable polycarbonate supports and allowed to differentiate for about 3 weeks prior to being used in the assays. The cells were then exposed to the compounds from either the apical or basolateral sides and incubated at 37 C for up to 90 minutes under light agitation. Compound transport was then measured using LC/MS/MS analysis at 30, 60, and 90 minutes.

[4] = Human liver microsome stability; format: in vitro ADME; settings: for Human Liver Microsome Stability Half Life: 37° C., 45 minutes incubation; for Human Liver Microsome Stability % QH: percentage of hepatic blood flow
Protocol: The stability of the claimed compounds was determined in the presences of human liver microsomes. The compounds were incubated with the microsomes at 37° C. for 45 minutes. Samples were analyzed using LC-MS/MS. Data analysis included half-life, clearance rate, and the percentage of hepatic blood flow (% QH) for each of the compounds in the different species.

[5] = system: ARPE19/HPV16 (HPV Immortalized RPE); experiment: Cell line screen (potency assay); format: cell-based; settings: ARPE-19, AICDA expression Negative
Protocol: as §2, §3
(§4) Compounds from master plate were then added to the culture plate. The culture plates were removed from the incubator, and set inside the biosafety cabinet. Using a liquid handler, 20 ul from wells B2 to B11 through G2 to G11 of master plate were aspirated, and dispensed into wells B2 to B11 through G2 to G11 of culture plate. This set was continued with each culture plate. Once the culture plates acquired their 20 ul of compound dilutions, they were placed back into the incubator, until their reads on Day 7 of experiment. Cell death was measured on Day 7 of the experiment using Cell-Titer Glo and a Promega Plate reader. […]

CCRF-SB (Leukemia) = experiment: Cell line screen (potency assay); format: cell-based; settings: Homo sapiens, AICDA expression High
Protocol: as §2, §3, §4

KG-1 (Leukemia) = experiment: Cell line screen (potency assay); format: cell-based; settings: AICDA expression Negative
Protocol: as §2, §3, §4

KYSE-510 (Head and Neck) = experiment: Cell line screen (potency assay); format: cell-based; settings: Homo sapiens, AICDA expression Negative
Protocol: as §2, §3, §4

KYSE-70 (Head and Neck) = experiment: Cell line screen (potency assay); format: cell-based; settings: Homo sapiens, AICDA expression Low
Protocol: as §2, §3, §4

OV56 (Ovary) = experiment: Cell line screen (potency assay); format: cell-based; settings: AICDA expression Low
Protocol: as §2, §3, §4

TOV-1120D (Ovary) = experiment: Cell line screen (potency assay); format: cell-based; settings: AICDA expression Negative
Protocol: as §2, §3, §4

U-698-M (Lymphoma) = experiment: Cell line screen (potency assay); format: cell-based; settings: AICDA expression High
Protocol: as §2, §3, §4

WSU-FSCCL (Lymphoma) = experiment: Cell line screen (potency assay); format: cell-based; settings: AICDA expression Negative
Protocol: as §2, §3, §4

[6] = Pharmacokinetic (PK) study; format: in vivo, Rat; settings: po @ 80 mg/kg (30% PEG400, 10% Vitamin E TPGS in water)
Protocol: PK studies in mice were used to determine the fate of the compounds in a whole organism. Rats were treated with the compounds either orally of via IV at the indicated doses and followed for up to 24 hours. Plasma samples were taken at different time points and analyzed by LC-MS.

[7] = 168 h, Daudi cells (AID positive), cell death on Day 7, read-out: AID+ EC50
[8] = Homo sapiens, WI-38 cells (AID negative), read-out: AID− EC50
[9] = Caco-2, apical to basolateral, read-out: AB Recovery %
[10] = Caco-2, basolateral to apical, read-out: BA Recovery %
[11] = Daudi (Lymphoma), AICDA expression High, read-out: EC50
[12] = WI-38 (Normal Human Lung Fibroblast), AICDA expression Negative, read-out: EC50

recovery at 90 min [3, 9]	recovery at 90 min [3, 10]	SMILES	pEC50 [1, 7]	pEC50 [2, 8]	pEC50 [1, 11]	pEC50 [2, 12]	Human Liver Microsome Stability Half Life [4]	Human Liver Microsome Stability % QH [4]	pEC50 [5]	pEC50 (CCRF-SB (Leukemia))	pEC50 (KG-1 (Leukemia))	pEC50 (KYSE-510 (Head and Neck))	pEC50 (KYSE-70 (Head and Neck))	pEC50 (U-698-M (Lymphoma))	pEC50 (WSU-FSCCL (Lymphoma))	F (%) @ 5 mg/kg ([6]; Rat Female)	T1/2 ([6]; Rat Female)	F (%) @ 5 mg/kg ([6]; Rat Male)	T1/2 ([6]; Rat Male)	other results
59.9%	87.2%	CC(C)(C)NS(=O)(=O)c1cc(NC(=O)NCc2ccccc2)ccc1-c1cnc(C2CCC(NC(=O)OC(C)(C)C)CC2)s1 (stereo not drawn) [Compound 10]	≥ 7.00	< 6.00																Papp A→B ([3]; Caco-2, apical to basolateral, 37 C, up to 90 minutes, read-out: AB Papp (cm/sec × 10^6)): 1.2 ×10⁻⁶ cm/s; Papp B→A ([3]; Caco-2, basolateral to apical, 37 C, up to 90 minutes, read-out: BA Papp (cm/sec × 10^6)): 1.5 ×10⁻⁶ cm/s; efflux ratio ([3]; Caco-2 efflux ratio, read-out: BA/AB Ratio): 1.3
92%	107%	CC(C)OC(=O)NC1CCC(c2ncc(-c3ccc(NC(=O)NCc4cccc(F)c4)cc3S(=O)(=O)NC(C)(C)C)s2)CC1 (stereo not drawn) [Compound 27]	≥ 7.00	< 6.00																
79.8%	116%	CC(C)OC(=O)NC1CCC(c2ncc(-c3ccc(NC(=O)N[C@H](C)c4ccccn4)cc3S(=O)(=O)NC(C)(C)C)s2)CC1 (stereo partly drawn) [Compound 30]	≥ 7.00	< 6.00																
		CC(C)OC(=O)NC1CCC(c2ncc(-c3ccc(NC(=O)O[C@H](C)c4ccccc4)cc3S(=O)(=O)NC(C)(C)C)s2)CC1 (stereo partly drawn) [Compound 43]	≥ 6.00	< 6.00																

SMILES	recovery at 90 min [3, 9]	recovery at 90 min [3, 10]	pEC50 [1, 7]	pEC50 [2, 8]	pEC50 [1, 11]	pEC50 [2, 12]	Human Liver Microsome Stability Half Life [4]	Human Liver Microsome Stability % QH [4]	pEC50 [5]	pEC50 (CCRF-SB (Leukemia))	pEC50 (KG-1 (Leukemia))	pEC50 (KYSE-510 (Head and Neck))	pEC50 (KYSE-70 (Head and Neck))	pEC50 (U-698-M (Lymphoma))	pEC50 (WSU-FSCCL (Lymphoma))	F (%) @ 5 mg/kg ([6]; Rat Female)	T1/2 ([6]; Rat Female)	F (%) @ 5 mg/kg ([6]; Rat Male)	T1/2 ([6]; Rat Male)	other results
CC(C)OC(=O)N[C@H]1CC[C@H](c2ncc(-c3ccc(NC(=O)NCc4ccccn4)cc3S(=O)(=O)NC(C)(C)C)s2)CC1 [Compound 29]	93.9%	90.9%	≥ 7.00	< 6.00	7.37	< 5.00	0.342 h	78.8%	< 5.00	5.89	< 5.00	< 5.00	5.33	6.95	7.17	8.39%	4.66 h	3.69%	3.97 h	pEC50 (OV56 (Ovary)): 5.04; pEC50 (TOV-1120D (Ovary)): 5.04
CC(C)OC(=O)N[C@H]1CC[C@H](c2ncc(-c3ccc(NC(=O)NCc4ncccc4F)cc3S(=O)(=O)NC(C)(C)C)s2)CC1 [Compound 31]	70.5%	92.3%	≥ 7.00	< 6.00	7.70	< 5.00	0.373 h	77.3%	< 5.00	5.66	5.06	< 5.00	5.33	7.51	> 7.40	2.77%	4.75 h	1.49%	3.79 h	

Reference: patent publication US11607404B2, “Combinations of RAD51 and PARP inhibitors” (Cyteir Therapeutics, Inc., priority 2019, dated 2023)
